These are literature values, as cited in US20170246115A1, “MEDICINE” (KOWA COMPANY, LTD., priority 2012, published 2017).

For the series the following is noted: amorphous form formed on drying crystal form A at a water content of 4% or lower.

On to `O=C([O-])C[C@H](O)C[C@H](O)/C=C/c1c(C2CC2)nc2ccccc2c1-c1ccc(F)cc1.O=C([O-])C[C@H](O)C[C@H](O)/C=C/c1c(C2CC2)nc2ccccc2c1-c1ccc(F)cc1.[Ca+2]` [amorphous pitavastatin calcium], for which the storage stability entry was “considerably poor storage stability”.
